In US4421685A, “Process for producing an insulin” (Eli Lilly and Company, priority 1981, dated 1983):

What was measured:
[1] = test system: rabbit blood glucose; test: USP rabbit assay (rabbit blood glucose assay); format: in vivo; conditions: 144 rabbits; zinc insulin crystals redissolved in 0.01 N HCl
Source text: (§1) Moreover, the product can be assayed for purity and activity by recognized methods such as polyacrylamide gel electrophoresis, amino acid analysis, insulin radioreceptorassay, insulin radioimmunoassay, high performance liquid chromatography (HPLC), ultraviolet spectrum, dansylation, rabbit blood glucose assay, and the like.
The resulting human insulin preparation was judged to be quite pure by polyacrylamide gel electrophoresis (a single band), amino acid analysis, insulin radioreceptorassay, insulin radioimmunoassay, HPLC, dansylation and UV spectrum. […] (anhydrous).

[2] = biological target: insulin receptor (Homo sapiens, UniProt P06213); test: insulin radioreceptor assay; format: binding
Chain of insulin receptor (P06213 28-758 limits assumed): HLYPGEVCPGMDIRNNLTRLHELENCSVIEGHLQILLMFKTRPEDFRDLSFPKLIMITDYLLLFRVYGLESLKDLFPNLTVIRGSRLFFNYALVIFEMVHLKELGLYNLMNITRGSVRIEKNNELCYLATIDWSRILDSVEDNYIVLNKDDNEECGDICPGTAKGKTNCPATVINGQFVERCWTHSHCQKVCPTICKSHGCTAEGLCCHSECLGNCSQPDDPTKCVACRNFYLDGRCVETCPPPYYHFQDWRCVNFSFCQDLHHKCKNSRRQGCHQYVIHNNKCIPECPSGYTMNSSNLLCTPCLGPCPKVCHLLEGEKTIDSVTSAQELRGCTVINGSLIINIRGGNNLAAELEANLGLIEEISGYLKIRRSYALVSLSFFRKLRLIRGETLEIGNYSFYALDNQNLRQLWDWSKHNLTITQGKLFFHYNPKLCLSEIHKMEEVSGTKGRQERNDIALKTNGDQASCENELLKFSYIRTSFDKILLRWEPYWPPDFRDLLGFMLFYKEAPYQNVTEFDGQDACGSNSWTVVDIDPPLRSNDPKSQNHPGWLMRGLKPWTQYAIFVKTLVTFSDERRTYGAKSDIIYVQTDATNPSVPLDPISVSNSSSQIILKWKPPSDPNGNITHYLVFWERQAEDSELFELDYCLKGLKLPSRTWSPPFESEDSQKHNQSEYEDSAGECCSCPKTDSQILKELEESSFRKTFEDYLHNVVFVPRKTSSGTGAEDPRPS
Chain of insulin receptor (P06213 763-1382 partner limits assumed): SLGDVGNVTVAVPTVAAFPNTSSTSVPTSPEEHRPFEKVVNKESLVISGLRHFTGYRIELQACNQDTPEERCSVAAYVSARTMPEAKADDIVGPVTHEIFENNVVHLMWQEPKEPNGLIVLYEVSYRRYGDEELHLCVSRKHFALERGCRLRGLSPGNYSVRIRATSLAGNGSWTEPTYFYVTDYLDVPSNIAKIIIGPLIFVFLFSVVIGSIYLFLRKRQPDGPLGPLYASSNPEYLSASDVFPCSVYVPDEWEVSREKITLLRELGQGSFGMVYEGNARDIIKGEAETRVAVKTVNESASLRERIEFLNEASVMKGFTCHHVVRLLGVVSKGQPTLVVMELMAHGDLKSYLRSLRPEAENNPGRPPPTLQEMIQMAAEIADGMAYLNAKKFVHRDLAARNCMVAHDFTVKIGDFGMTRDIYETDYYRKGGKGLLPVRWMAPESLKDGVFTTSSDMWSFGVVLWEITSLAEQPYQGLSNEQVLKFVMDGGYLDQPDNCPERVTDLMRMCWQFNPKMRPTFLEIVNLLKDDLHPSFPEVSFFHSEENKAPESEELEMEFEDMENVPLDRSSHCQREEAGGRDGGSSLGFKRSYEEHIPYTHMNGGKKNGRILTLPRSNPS
Source text: as §1
After acidification to pH 3.15 with glacial acetic acid, a portion of this solution was gel filtered on a 1.5×90 cm. column of Sephadex G-50 (Superfine) equilibrated and eluted with 1 M acetic acid at 4°-8° C. The [N-formyl-Gly^1 A] human insulin peak (elution volume 87-95 ml.) was pooled, aliquotted and lyophilized. This protein was judged to be quite clean by HPLC and amino acid analysis. The bioactivity of [N-formyl-Gly^1 -A] human insulin evaluated by radioreceptor assay was 17% relative to a human insulin standard.

| bioactivity evaluated by radioreceptor assay relative to a human insulin standard [2] [%] | Substance | potency, USP rabbit assay [1] |
| --- | --- | --- |
|  | human insulin | 26.3±1.8 units per mg. (anhydrous) |
| 17 | [N-formyl-Gly^1 -A] human insulin |  |
